Reference: ChEMBL document CHEMBL1909046, “DrugMatrix in vitro pharmacology data”

Legend:
[1] = DRUGMATRIX: Potassium Channel [KATP] radioligand binding (ligand: [3H] Glyburide); assay type: cell membranes, Membrane; conditions: hit-t15; Not Active = under 50% inhibition at 10 µM
[2] = DRUGMATRIX: GABAA, Chloride Channel, TBOB radioligand binding (ligand: [3H] TBOB); assay type: cell membranes, Rattus norvegicus, Wistar, Cerebral cortex, Membrane; conditions: Not Active = under 50% inhibition at 10 µM
Cathepsin G = molecular target: T1, Cathepsin G (Homo sapiens, UniProt P08311); assay type: tissue-based; conditions: neutrophil;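 also: inhibition of Cathepsin G enzyme activity, tested on an AMC-conjugated peptide substrate; in other assays of this panel Not Active means under 50% inhibition at 10 µM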
T1 sequence (P08311 whole entry): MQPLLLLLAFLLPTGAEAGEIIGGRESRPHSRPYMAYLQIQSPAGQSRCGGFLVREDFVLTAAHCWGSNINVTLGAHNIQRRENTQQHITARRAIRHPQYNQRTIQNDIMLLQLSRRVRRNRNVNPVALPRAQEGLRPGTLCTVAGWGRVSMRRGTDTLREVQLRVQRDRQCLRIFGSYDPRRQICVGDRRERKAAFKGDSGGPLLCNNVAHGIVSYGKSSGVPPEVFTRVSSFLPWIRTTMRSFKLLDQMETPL

[3] = molecular target: T2, Nitric oxide synthase, inducible (Mus musculus, UniProt P29477); set-up: species or system Escherichia coli;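 also: inhibition of iNOS enzyme activity measured with L-arginine as substrate; in other assays of this panel Not Active means under 50% inhibition at 10 µM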
T2 sequence (P29477 whole entry): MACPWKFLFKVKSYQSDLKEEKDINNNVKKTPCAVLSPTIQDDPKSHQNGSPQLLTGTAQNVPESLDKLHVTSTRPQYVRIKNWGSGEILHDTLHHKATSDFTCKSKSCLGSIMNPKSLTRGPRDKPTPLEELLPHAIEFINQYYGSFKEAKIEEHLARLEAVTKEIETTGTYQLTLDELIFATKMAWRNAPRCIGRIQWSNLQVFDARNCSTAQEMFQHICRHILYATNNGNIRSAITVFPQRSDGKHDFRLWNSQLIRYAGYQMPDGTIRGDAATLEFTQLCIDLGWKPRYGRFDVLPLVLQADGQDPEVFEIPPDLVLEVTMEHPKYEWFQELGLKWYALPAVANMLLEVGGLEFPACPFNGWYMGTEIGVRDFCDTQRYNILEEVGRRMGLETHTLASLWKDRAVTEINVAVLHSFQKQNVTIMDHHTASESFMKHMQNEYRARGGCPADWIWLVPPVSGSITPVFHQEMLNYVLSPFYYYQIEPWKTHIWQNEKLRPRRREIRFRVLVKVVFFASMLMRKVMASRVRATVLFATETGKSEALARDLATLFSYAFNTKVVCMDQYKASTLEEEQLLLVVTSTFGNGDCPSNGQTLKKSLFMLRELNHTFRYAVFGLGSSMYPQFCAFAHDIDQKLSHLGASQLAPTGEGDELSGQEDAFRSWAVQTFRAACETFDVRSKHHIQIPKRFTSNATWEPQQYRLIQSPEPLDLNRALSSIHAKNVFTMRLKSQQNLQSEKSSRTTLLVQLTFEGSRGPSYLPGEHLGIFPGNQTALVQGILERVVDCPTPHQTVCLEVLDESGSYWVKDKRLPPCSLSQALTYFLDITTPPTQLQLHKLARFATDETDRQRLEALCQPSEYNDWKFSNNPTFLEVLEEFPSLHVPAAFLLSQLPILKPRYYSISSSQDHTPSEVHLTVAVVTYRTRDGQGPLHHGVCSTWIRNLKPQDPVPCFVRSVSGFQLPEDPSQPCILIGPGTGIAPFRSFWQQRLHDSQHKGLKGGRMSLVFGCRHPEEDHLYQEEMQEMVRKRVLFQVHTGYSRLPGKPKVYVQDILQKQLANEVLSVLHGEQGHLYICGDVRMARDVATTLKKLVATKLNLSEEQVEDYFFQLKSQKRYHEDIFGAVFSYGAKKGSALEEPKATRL

[4] = molecular target: T3, Alpha-2A adrenergic receptor (Homo sapiens, UniProt P08913); assay type: cell membranes, Sf9, Membrane; conditions: sf9; also: in other assays of this panel Not Active means under 50% inhibition at 10 µM
T3 sequence (P08913 whole entry): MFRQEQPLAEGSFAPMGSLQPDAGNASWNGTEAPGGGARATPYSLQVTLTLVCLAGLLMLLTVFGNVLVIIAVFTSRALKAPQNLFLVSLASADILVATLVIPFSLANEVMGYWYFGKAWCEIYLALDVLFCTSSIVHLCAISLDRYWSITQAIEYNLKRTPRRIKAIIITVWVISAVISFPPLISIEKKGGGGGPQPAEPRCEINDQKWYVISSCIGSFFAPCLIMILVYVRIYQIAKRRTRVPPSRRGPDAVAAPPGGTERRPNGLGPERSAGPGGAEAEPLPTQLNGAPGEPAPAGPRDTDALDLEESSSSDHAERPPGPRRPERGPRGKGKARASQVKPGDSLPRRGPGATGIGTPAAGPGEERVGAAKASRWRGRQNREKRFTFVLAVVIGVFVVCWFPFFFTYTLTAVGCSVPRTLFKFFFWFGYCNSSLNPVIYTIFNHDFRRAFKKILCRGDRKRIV

[5] = molecular target: Aldo-keto reductase family 1 member B1 (Rattus norvegicus, UniProt P07943); assay type: tissue-based, Lens of camera-type eye;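 also: inhibition of aldose reductase enzyme activity, measured with DL-glyceraldehyde as the substrate; in other assays of this panel Not Active means under 50% inhibition at 10 µM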
[6] = DRUGMATRIX: Interleukin IL-1 radioligand binding (ligand: [125I] interleukin 1beta); assay type: cell membranes, Membrane; conditions: nih3t3; Not Active = under 50% inhibition at 10 µM
[7] = molecular target: Vascular endothelial growth factor receptor 1 (Homo sapiens, UniProt P17948); assay type: cell-based; conditions: huvec; also: in other assays of this panel Not Active means under 50% inhibition at 10 µM
Vascular endothelial growth factor receptor 1, sequence (P17948 whole entry): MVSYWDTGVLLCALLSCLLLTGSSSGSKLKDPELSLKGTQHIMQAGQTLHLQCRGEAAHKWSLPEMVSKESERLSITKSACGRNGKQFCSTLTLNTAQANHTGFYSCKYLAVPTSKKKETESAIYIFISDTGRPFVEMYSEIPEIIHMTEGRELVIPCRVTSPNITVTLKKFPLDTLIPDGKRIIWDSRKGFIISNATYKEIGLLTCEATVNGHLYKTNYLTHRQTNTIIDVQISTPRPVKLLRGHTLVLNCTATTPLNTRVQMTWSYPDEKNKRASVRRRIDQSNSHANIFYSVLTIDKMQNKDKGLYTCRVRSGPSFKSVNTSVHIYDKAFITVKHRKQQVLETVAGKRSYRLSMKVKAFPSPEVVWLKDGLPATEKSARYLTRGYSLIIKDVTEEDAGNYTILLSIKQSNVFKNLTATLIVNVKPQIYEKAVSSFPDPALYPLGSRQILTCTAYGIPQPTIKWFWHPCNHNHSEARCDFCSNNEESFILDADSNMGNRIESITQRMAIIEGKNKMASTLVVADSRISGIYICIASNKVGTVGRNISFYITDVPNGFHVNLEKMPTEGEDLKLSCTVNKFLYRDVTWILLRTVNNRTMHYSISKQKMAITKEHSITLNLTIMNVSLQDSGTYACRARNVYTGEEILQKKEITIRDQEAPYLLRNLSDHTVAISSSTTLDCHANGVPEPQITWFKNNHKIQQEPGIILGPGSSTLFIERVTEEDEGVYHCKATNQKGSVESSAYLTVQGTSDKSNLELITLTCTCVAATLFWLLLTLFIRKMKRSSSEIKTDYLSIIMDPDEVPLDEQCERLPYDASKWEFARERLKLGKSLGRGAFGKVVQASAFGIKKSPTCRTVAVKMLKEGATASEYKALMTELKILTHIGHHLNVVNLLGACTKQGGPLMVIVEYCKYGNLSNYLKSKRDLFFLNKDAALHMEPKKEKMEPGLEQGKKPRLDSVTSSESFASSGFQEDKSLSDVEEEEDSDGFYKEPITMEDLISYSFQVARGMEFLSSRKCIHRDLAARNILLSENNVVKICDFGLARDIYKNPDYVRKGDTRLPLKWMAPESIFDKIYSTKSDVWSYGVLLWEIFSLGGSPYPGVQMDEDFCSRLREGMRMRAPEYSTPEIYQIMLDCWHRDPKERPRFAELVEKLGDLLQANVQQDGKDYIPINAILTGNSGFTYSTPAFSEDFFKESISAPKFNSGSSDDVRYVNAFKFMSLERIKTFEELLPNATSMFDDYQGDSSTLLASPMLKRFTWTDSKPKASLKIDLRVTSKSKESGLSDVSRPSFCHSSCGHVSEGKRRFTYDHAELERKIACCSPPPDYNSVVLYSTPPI

[8] = DRUGMATRIX: Phosphodiesterase PDE3 enzyme inhibition (substrate: [3H]cAMP + cAMP); assay type: tissue-based, Homo sapiens; conditions: platelet; Not Active = under 50% inhibition at 10 µM
[9] = molecular target: T4, 5-hydroxytryptamine receptor 1A (Rattus norvegicus, UniProt P19327); assay type: cell membranes, CHO-K1, Membrane; conditions: cho-k1; also: in other assays of this panel Not Active means under 50% inhibition at 10 µM
T4 sequence (P19327 whole entry): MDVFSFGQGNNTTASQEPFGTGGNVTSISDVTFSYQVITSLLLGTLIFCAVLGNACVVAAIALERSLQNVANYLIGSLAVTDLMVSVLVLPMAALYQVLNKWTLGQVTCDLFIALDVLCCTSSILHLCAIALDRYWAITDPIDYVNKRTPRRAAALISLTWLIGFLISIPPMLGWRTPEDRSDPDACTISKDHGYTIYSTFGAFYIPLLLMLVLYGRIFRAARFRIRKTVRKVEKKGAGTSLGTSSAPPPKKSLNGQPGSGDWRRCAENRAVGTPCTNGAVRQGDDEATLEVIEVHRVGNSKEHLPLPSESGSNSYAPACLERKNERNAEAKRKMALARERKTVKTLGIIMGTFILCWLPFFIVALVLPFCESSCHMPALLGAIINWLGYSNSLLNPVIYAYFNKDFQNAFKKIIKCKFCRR

Melanocortin receptor 4 = Melanocortin receptor 4 (Homo sapiens, UniProt P32245); assay type: cell membranes, Membrane; conditions: hek293; also: in other assays of this panel Not Active means under 50% inhibition at 10 µM
Melanocortin receptor 4, sequence (P32245 whole entry): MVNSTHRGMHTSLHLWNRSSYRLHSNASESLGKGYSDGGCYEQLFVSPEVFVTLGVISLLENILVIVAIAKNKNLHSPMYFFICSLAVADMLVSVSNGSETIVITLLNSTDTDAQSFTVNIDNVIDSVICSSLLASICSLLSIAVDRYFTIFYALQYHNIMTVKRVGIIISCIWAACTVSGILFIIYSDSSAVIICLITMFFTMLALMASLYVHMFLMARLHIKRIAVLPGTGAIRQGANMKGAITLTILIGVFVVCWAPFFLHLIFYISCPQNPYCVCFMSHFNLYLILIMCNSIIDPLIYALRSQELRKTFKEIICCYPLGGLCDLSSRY

SMILES	IC50 [1]	Ki [1]	IC50 (Cathepsin G)	IC50 [3]	IC50 [4]	IC50 [5]	IC50 [6]	Ki [6]	IC50 [7]	IC50 [8]	Ki [8]	IC50 [9]	IC50 (Melanocortin receptor 4)	IC50 [2]	Ki [2]	other results
CC(=O)[C@H]1CC[C@H]2[C@@H]3CCC4=CC(=O)CC[C@]4(C)[C@H]3CC[C@]12C [PROGESTERONE]	Not Active	Not Active	Not Active	Not Active	Not Active	Not Active	Not Active	Not Active	Not Active	Not Active	Not Active	Not Active	Not Active			IC50 ([2]; read-out: IC50): 24.9 µM; Ki ([2]; read-out: Ki): 22.3 µM
NC(=O)c1ncn([C@@H]2O[C@H](CO)[C@@H](O)[C@H]2O)n1 [RIBAVIRIN]	Not Active	Not Active	Not Active	Not Active	Not Active	Not Active	Not Active	Not Active	Not Active	Not Active	Not Active	Not Active	Not Active	Not Active	Not Active	
O=[N+]([O-])c1cc([As](=O)(O)O)ccc1O [ROXARSONE]	Not Active	Not Active	Not Active	Not Active	Not Active	Not Active	Not Active	Not Active	Not Active	Not Active	Not Active	Not Active	Not Active	Not Active	Not Active	Ki (Cathepsin G): Not Active; Ki [3]: Not Active; Ki [4]: Not Active; Ki [5]: Not Active; Ki [7]: Not Active; Ki [9]: Not Active; Ki (Melanocortin receptor 4): Not Active
CC[C@H]1OC(=O)[C@H](C)[C@@H](O[C@H]2C[C@@](C)(OC)[C@@H](O)[C@H](C)O2)[C@H](C)[C@@H](O[C@@H]2O[C@H](C)C[C@H](N(C)C)[C@H]2O)[C@](C)(O)C[C@@H](C)/C(=N\OCOCCOC)[C@H](C)[C@@H](O)[C@]1(C)O [ROXITHROMYCIN]	Not Active	Not Active	Not Active	Not Active	Not Active	Not Active	Not Active	Not Active	Not Active	Not Active	Not Active	Not Active	Not Active	Not Active	Not Active	
NC(=O)c1ccccc1O [SALICYLAMIDE]	Not Active	Not Active	Not Active	Not Active	Not Active	Not Active	Not Active	Not Active	Not Active	Not Active	Not Active	Not Active	Not Active	Not Active	Not Active	
Cc1ncc([N+](=O)[O-])n1CC(C)O (configuration not stated) [SECNIDAZOLE]	Not Active	Not Active	Not Active	Not Active	Not Active	Not Active	Not Active	Not Active	Not Active	Not Active	Not Active	Not Active	Not Active	Not Active	Not Active	
CN[C@@H]1[C@@H](O)[C@@H](O[C@@H]2[C@@H](O)[C@H](O[C@H]3OC(CN)=CC[C@H]3N)[C@@H](N)C[C@H]2N)OC[C@]1(C)O [SISOMICIN]	Not Active	Not Active	Not Active	Not Active	Not Active	Not Active	Not Active	Not Active	Not Active	Not Active	Not Active	Not Active	Not Active	Not Active	Not Active	
CC(=O)S[C@@H]1CC2=CC(=O)CC[C@]2(C)[C@H]2CC[C@@]3(C)[C@@H](CC[C@@]34CCC(=O)O4)[C@H]12 [SPIRONOLACTONE]	Not Active	Not Active	Not Active	Not Active	Not Active	Not Active	Not Active	Not Active	Not Active	Not Active	Not Active	Not Active	Not Active	Not Active	Not Active	
